In ChEMBL document CHEMBL1153759, “Surface plasmon resonance-based detection of ladder-shaped polyethers by inhibition detection method” (Bioorg Med Chem Lett, 2009):
Calls of active or inactive are those of the source. The rule behind the calls is not given here.

Legend:
[1] = target: 3',5'-cyclic-AMP phosphodiesterase 4D (Homo sapiens, UniProt Q08499); assay: Binding affinity to recombinant PDE4D by surface plasmon resonance assay
[2] = (§1) Inhibition of bovine spleen PDE2 by surface plasmon resonance assay; parameters: species or system Bos taurus
[3] = species on record: Bos taurus; assay: Inhibition of bovine spleen PDE2 up to 100 uM after 20 to 40 seconds by surface plasmon resonance assay
[4] = Binding affinity to bovine spleen PDE2 by surface plasmon resonance assay; parameters: species or system Bos taurus
[5] = species on record: Bos taurus; assay: as §1

Sequence of 3',5'-cyclic-AMP phosphodiesterase 4D (Q08499 whole entry): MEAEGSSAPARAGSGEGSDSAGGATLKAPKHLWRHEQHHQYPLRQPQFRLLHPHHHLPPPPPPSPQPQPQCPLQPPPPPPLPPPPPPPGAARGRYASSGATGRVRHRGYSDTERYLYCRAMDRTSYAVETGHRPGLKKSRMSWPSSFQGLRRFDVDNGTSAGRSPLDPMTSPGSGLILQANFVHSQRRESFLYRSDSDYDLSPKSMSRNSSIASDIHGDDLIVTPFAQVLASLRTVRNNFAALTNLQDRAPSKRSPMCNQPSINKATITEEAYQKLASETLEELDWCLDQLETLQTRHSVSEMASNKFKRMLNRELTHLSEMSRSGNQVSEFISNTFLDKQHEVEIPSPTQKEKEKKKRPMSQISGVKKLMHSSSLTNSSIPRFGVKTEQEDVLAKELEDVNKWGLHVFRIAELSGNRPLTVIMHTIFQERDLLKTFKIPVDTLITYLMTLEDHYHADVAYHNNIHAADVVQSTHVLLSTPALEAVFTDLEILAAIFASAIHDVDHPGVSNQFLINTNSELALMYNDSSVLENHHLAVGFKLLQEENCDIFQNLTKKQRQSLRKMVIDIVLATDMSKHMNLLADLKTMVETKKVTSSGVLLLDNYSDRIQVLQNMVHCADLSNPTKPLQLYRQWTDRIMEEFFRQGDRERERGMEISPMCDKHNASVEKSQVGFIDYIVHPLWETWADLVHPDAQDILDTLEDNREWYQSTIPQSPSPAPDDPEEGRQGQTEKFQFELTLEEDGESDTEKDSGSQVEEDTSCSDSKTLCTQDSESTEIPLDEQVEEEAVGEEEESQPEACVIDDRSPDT

| Compound | Kd [1] [µM] | IC50 [2] [µM] | inhibition [3] | Kd [4] [µM] | inhibition [5] |
| --- | --- | --- | --- | --- | --- |
| C[C@@]12CC[C@@H]3O[C@H](CO)[C@@H](O)C[C@H]3O[C@H]1C[C@H]1O[C@@H](CCOCc3ccccc3)[C@H](OCc3ccccc3)C[C@@H]1O2 | 11 | 13 |  |  |  |
| C=CCC(=C)/C=C/[C@@](C)(O)[C@H]1O[C@@H]2C[C@@H]3O[C@@H]4C[C@@H]5O[C@@H]6C[C@@H]7O[C@@H]8C[C@@H]9O[C@@H]%10C[C@@H]%11O[C@](C)(CCOS(=O)(=O)O)[C@@H](OS(=O)(=O)O)C[C@H]%11O[C@H]%10C[C@H]9O[C@H]8CC[C@@]7(C)O[C@@]6(C)CC[C@H](C)[C@H]5O[C@H]4C[C@@]3(C)O[C@H]2CC1=C [YESSOTOXIN] | 1 | 3 | Active | 2.2 |  |
| C[C@@]12CC[C@@H]3O[C@@H]4C[C@@H]5O[C@@H]6C[C@H](O)[C@@H](CO)O[C@H]6CC[C@@]5(C)O[C@H]4C[C@H]3O[C@H]1C[C@H]1O[C@@H](CCOCc3ccccc3)[C@H](OCc3ccccc3)C[C@@H]1O2 | 4.8 | 9.2 |  |  |  |
| C=CCC(=C)/C=C/[C@@](C)(O)[C@H]1O[C@@H]2C[C@@H]3O[C@@H]4C[C@@H]5O[C@@H]6C[C@@H]7O[C@@H]8C[C@@H]9O[C@@H]%10C[C@@H]%11O[C@](C)(CCO)[C@@H](O)C[C@H]%11O[C@H]%10C[C@H]9O[C@H]8CC[C@@]7(C)O[C@@]6(C)CC[C@H](C)[C@H]5O[C@H]4C[C@@]3(C)O[C@H]2CC1=C [DESULFATED YESSOTOXIN] | 2 | 1.7 | Active |  | Dose-dependent effect |
| C[C@@]12CC[C@@H]3O[C@H](CO)[C@@H](O)C[C@H]3O[C@H]1C[C@H]1O[C@@H](CCO)[C@H](O)C[C@@H]1O2 | 29 | > 100 |  |  |  |
| OC[C@H]1O[C@@H](CCOCc2ccccc2)[C@H](OCc2ccccc2)C[C@@H]1O | 80 | > 100 |  |  |  |
| C=C(C=O)C[C@@H]1C[C@H](O)[C@]2(C)O[C@@H]3C[C@@H]4O[C@@H]5C[C@]6(C)O[C@]7(C)CC[C@@H]8O[C@@H]9C[C@]%10(C)O[C@@H]%11C(C)=CC(=O)O[C@H]%11C[C@H]%10O[C@H]9C[C@@H](C)[C@H]8O[C@H]7C[C@H]6O[C@H]5C/C=C\[C@H]4O[C@H]3C[C@H]2O1 [BREVETOXIN] | 3.8 | 1.8 | Active |  |  |
| CC[C@@H](C(=O)[C@@H](C)[C@@H](O)[C@H](C)[C@@H]1O[C@@H]([C@@H](CC)C(=O)O)CC[C@@H]1C)[C@H]1O[C@]2(C=C[C@@H](O)[C@]3(CC[C@@](C)([C@H]4CC[C@](O)(CC)[C@H](C)O4)O3)O2)[C@H](C)C[C@@H]1C [SALINOMYCIN SODIUM] |  | > 100 |  |  |  |
